# Reference: patent US20240317791A1 (priority 2021, published 2024)
# Where two headings read alike, the source gives them in different places.
# Assays:
# Penicillium spp. = details: 5 strains of Penicillium spp.; cited from earlier work
# Paecilomyces variotii = details: 2 strains Paecilomyces variotii; cited from earlier work
# Mucor circinelloides = assay: MIC determination against ATCC and clinical isolates of the order Mucorales (CLSI M27, 4th edition); format: cell-based
# Source text: (§1) MIC: Minimum Inhibitory Concentration (MIC) is defined as the lowest concentration of an antimicrobial ingredient that is bacteriostatic.
# (§2) Testing has been performed in triplicates for each isolate.
# Mucor sp. = details: 4 strains of Mucor sp.; cited from earlier work
# Rhizopus oryzae = assay: MIC determination against clinical isolates of the order Mucorales (CLSI M27, 4th edition); format: cell-based; details: Rhizopus arrhizus, strain 2086, clinical strain
# Source text: as §1, §2
# Rhizopus microsporus = assay: as above; format: cell-based
# Source text: as §1, §2
# Candida albicans = details: cited from earlier work
# rat erythrocytes = details: cited from earlier work
# Sporothrix schenkii = details: 1 strain of Sporothrix schenkii; cited from earlier work
# Candida sp. = details: cited from earlier work
# [1] = rats, cited from earlier work
# Aspergillus spp. = details: 13 strains of Aspergillus spp.; cited from earlier work
# Candida auris = assay: MIC determination against clinical isolates of Candida auris (CLSI M27, 4th edition); format: cell-based; details: Candidozyma auris, read-out: MIC values
# Source text: as §1, §2
# [2] = single intravenous administration, amcipatricin diascorbate 1.25 mg/kg, amphotericin B 1 mg/kg
smiles,measurement,setting,value
"CNc1ccc(C(=O)CC(O)CC[C@H](C)C2OC(=O)C[C@H](O)CC(=O)C[C@H](O)C[C@H](O)C[C@H](O)C[C@H](O)C[C@]3(O)C[C@H](O)[C@@H](C(=O)NCCN(C)C)C(C[C@@H](OC4OC(C)C(O)C(NC(=O)CN(C)C)C4O)/C=C/C=C/C=C/C=C\C=C/C=C/C=C/[C@@H]2C)O3)cc1 (stereo partly drawn) [Amcipatricin diascorbate, Candicidin D, 18-decarboxy-40-demethyl-3,7-dideoxo-N3′-[(dimethylamino)acetyl]-18-[[[2-(dimethylamino)ethyl]-amino]carbonyl]-3,7-dihydroxy-N47-methyl-5-oxo-, cyclic 15,19-hemiacetal, compound with L-ascorbic acid (1:2)]",geometric means of the minimum fungicidal concentrations,Penicillium spp.,about 12 μg/mL
same,fungicidal activity compared to amphotericin B,Paecilomyces variotii,most fungicidal
same,MIC,"Mucor circinelloides; ATCC24905, strain ATCC 24905, ATCC strain",4 mg/L
same,MIC,"Mucor circinelloides; strain 2109, clinical strain",4 mg/L
same,MIC,"Mucor circinelloides; strain 2707, clinical strain",4 mg/L
same,MIC,"Mucor circinelloides; strain 4280, clinical strain",4 mg/L
same,fungicidal activity compared to amphotericin B,Mucor sp.,most fungicidal
same,MIC,Rhizopus oryzae,4 mg/L
same,MIC,"Rhizopus microsporus; strain 3315, clinical strain",2 mg/L
same,MIC,"Rhizopus microsporus; strain 3435, clinical strain",4 mg/L
same,fungicidal minimum inhibitory concentration against Candida albicans,Candida albicans,0.0075 mg/L
same,haemolytic minimum concentration against rat erythrocytes,rat erythrocytes,18 mg/mL
same,MFC,Sporothrix schenkii,19.2 mg/L
same,drug concentrations inhibiting conversion from yeast to mycelial form,Candida sp.,0.25 to 0.62 mg/L
same,AUC(0-00),"[1]; multiple administration 1.25 mg/kg/day for 7 days, intravenous, seventh day, serum",72.1 µg·h/mL
same,serum elimination half-life,"[1]; multiple administration 1.25 mg/kg/day for 7 days, intravenous, seventh day",41.4 h
same,area under the curve to infinity (AUC(0-∞)),[1]; [2],35.52 µg·h/mL
same,elimination half-lives,[1]; [2],22.15 h
same,tissue distribution,[1]; single intravenous administration,"higher uptake by the kidneys, followed by the liver, spleen and lungs"
same,geometric means of the minimum fungicidal concentrations,Aspergillus spp.,12.53 mg/L
same,MIC,"Candida auris; strain I.2 (No 2), clade I/India",2 mg/L
same,MIC,"Candida auris; strain I.3 (No 3), clade I/India",2 mg/L
same,MIC,"Candida auris; strain I.4 (No 4), clade I/India",2 mg/L
same,MIC,"Candida auris; strain II.1 (No 5), clade II/Japan",2 mg/L
same,MIC,"Candida auris; strain II.2 (No 1), clade II/India",2 mg/L
same,MIC,"Candida auris; strain III.7 (No 12), clade III/Switzerland",1 mg/L
same,MIC,"Candida auris; strain III.8 (No 13), clade III/Israel",1 mg/L
same,MIC,"Candida auris; strain III.9 (No 14), clade III/Israel",1 mg/L
same,MIC,"Candida auris; strain IV.1 (No 15), clade IV/Colombia",2 mg/L
same,MIC,"Candida auris; strain IV.10 (No 7), clade IV/Israel",2 mg/L
same,MIC,"Candida auris; strain IV.11 (No 8), clade IV/Israel",1 mg/L
same,MIC,"Candida auris; strain IV.12 (No 9), clade IV/Israel",1 mg/L
same,MIC,"Candida auris; strain IV.13 (No 10), clade IV/Israel",2 mg/L
same,MIC,"Candida auris; strain IV.14 (No 11), clade IV/Israel",2 mg/L
same,MIC,"Candida auris; strain IV.2 (No 16), clade IV/Colombia",2 mg/L
same,MIC,"Candida auris; strain IV.3 (No 17), clade IV/Colombia",2 mg/L
same,MIC,"Candida auris; strain IV.4 (No 18), clade IV/Colombia",2 mg/L
same,MIC,"Candida auris; strain IV.5 (No 19), clade IV/Colombia",2 mg/L
same,MIC,"Candida auris; strain IV.6 (No 20), clade IV/Colombia",2 mg/L
same,MIC,"Candida auris; strain IV.7 (No 21), clade IV/Colombia",2 mg/L
same,MIC,"Candida auris; strain IV.8 (No 22), clade IV/Colombia",2 mg/L
same,MIC,"Candida auris; strain IV.9 (No 6), clade IV/Israel",2 mg/L
